Molecules are shown by their SMILES.

T1 sequence (P14902 whole entry): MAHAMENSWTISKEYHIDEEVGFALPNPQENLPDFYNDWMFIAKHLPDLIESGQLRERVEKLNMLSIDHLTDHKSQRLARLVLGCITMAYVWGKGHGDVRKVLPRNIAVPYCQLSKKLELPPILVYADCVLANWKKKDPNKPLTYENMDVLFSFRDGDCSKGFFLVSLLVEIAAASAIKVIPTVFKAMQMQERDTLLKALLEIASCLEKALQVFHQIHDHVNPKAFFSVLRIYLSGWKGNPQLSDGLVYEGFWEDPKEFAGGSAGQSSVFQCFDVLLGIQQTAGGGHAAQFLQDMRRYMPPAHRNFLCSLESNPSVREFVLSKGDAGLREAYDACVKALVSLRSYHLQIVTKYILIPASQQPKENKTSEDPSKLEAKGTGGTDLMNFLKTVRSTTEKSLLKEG

The assay concerns the target T1, IDO1 (Homo sapiens, UniProt P14902).
T1 construct: BxPC3 cells were seeded in phenol red-free RPMI 1640 medium; endogenous in cells; host or cells: BxPC3 cells stimulated with IFN-γ (50 ng/mL)
Description: Kyn assay in BxPC-3 cells (Kyn levels after IFN-γ and Trp).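 Note: kyn levels expressed relative to DMSO-treated control cells.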 In kind it is cell-based. The settings on record: BxPC-3 cells incubated with IFN-γ, Trp and the compounds for 48 h; read-out: Kyn assay IC50 ± SD.
Description: BxPC3 cells were seeded in phenol red-free RPMI 1640 medium in 1536-well or 384-well plates (Greiner #782086, Corning #3770) 24 h prior to the addition of compounds, IFN-γ (50 ng/mL, PeproTech) and L-Trp (380 µM, Sigmal-Aldrich). After 48 h of incubation, first cell viability was accessed by the addition of Hoechst-33342. Afterwards, trichloroacetic acid (TCA, Sigma-Aldrich) was added to a final concentration of 7 % and incubated for 10 min prior to a centrifugation step of 10 min at 1620 × g. Kyn levels were determined by means of the Kyn sensor^7 at a final concentration of 17.5 µM in sensor buffer (50 mM H3PO4 and 120 mM NaCl (pH=1)). Fluorescence intensity (excitation: 535 nm, emission: 595 nm) was measured using a Spectramax Paradigm reader (Molecular Devices). Data were normalized to the values for cells that were treated with DMSO.
For the manual assay, BxPC3 or SKOV3 cells were seeded in clear 96-well or 384-well plates, respectively, 24 h prior to compound treatment and IFN-γ (50 or 5 ng/mL, respectively) and L-Trp (380 µM) addition as described before.^7 48 h after treatment, TCA was added and Kyn levels were detected by means of 2 % w/v of p-DMAB (Ehrlich reagent) in acetic acid as described by Braun et al^29. The absorbance of the Ehrlich reagent was detected at 492 nm and at 650 nm as background control was measured on Spark® multimode microplate plate reader (Tecan, Austria). Kyn levels were determined by subtracting the absorbance value at 650 nm and presented relative to the DMSO control. Dose-response curves and IC50 values were generated and fitted with GraphPad Prism 6.0 (GraphPad software, USA) using four-parameter variable slope non-linear regression curve fit.
Cells were incubated with IFN-γ, Trp and the compounds for 48 h prior to detection of Kyn levels.
For the molecule `CC(C)(C)c1ccc(S(=O)(=O)N2C[C@H]3C[C@H]4C[C@H](C4(C)C)[C@@]3(COC(=O)Nc3ccc(Br)cc3)C2)cc1` [compound 10, ((3aS,4R,6R,7aS)-2-((4-(tert-butyl)phenyl)sulfonyl)-5,5-dimethyloctahydro-3aH-4,6-methanoisoindol-3a-yl)methyl (4-bromophenyl)carbamate], the IC50 fell in the range of 200 to 1000 nM.

In the case of `Cc1ccccc1S(=O)(=O)N1C[C@H]2C[C@H]3C[C@H](C3(C)C)[C@@]2(COC(=O)Nc2ccc(I)cc2)C1` [compound 39, ((3aS,4R,6R,7aS)-5,5-dimethyl-2-(o-tolylsulfonyl)octahydro-3aH-4,6-methanoisoindol-3a-yl)methyl (4-iodophenyl)carbamate], the IC50 lay within 200 to 1000 nM.

For `Cc1ccc(S(=O)(=O)N2C[C@H]3C[C@H]4C[C@H](C4(C)C)[C@@]3(COC(=O)Nc3ccc(I)cc3)C2)cc1` [compound 41, ((3aS,4R,6R,7aS)-5,5-dimethyl-2-tosyloctahydro-3aH-4,6-methanoisoindol-3a-yl)methyl (4-iodophenyl)carbamate], the IC50 fell in the range of 200 to 1000 nM.

Consider `CC(C)(C)c1ccc(S(=O)(=O)N2C[C@H]3C[C@H]4C[C@H](C4(C)C)[C@@]3(COC(=O)Nc3ccccc3)C2)cc1` [compound 6, ((3aS,4R,6R,7aS)-2-((4-(tert-butyl)phenyl)sulfonyl)-5,5-dimethyloctahydro-3aH-4,6-methanoisoindol-3a-yl)methyl phenylcarbamate], for which the IC50 is 5000 to 10000 nM.

For the molecule `Cc1ccc(NC(=O)OC[C@]23CN(S(=O)(=O)C4CCCCC4)C[C@H]2C[C@H]2C[C@@H]3C2(C)C)cc1` [compound 31, ((3aS,4R,6R,7aS)-2-(cyclohexylsulfonyl)-5,5-dimethyloctahydro-3aH-4,6-methanoisoindol-3a-yl)methyl p-tolylcarbamate], the IC50 fell in the range of 5000 to 10000 nM.

As to `CC(C)(C(=O)N1CCOCC1)c1ccc(S(=O)(=O)N2C[C@H]3C[C@H]4C[C@H](C4(C)C)[C@@]3(COC(=O)Nc3ccc(I)cc3)C2)cc1` [compound 59, ((3aS,4R,6R,7aS)-5,5-dimethyl-2-((4-(2-methyl-1-morpholino-1-oxopropan-2-yl)phenyl)sulfonyl)octahydro-3aH-4,6-methanoisoindol-3a-yl)methyl (4-iodophenyl)carbamate], the IC50 lay in the range of 5000 to 10000 nM.

`CC(C)(C)c1ccc(S(=O)(=O)N2C[C@H]3C[C@H]4C[C@H](C4(C)C)[C@@]3(COC(=O)Nc3cccc(Br)c3)C2)cc1` [compound 14, ((3aS,4R,6R,7aS)-2-((4-(tert-butyl)phenyl)sulfonyl)-5,5-dimethyloctahydro-3aH-4,6-methanoisoindol-3a-yl)methyl (3-bromophenyl)carbamate]: the IC50 fell in the range of 5000 to 10000 nM.

Turning to `CN(C)C(=O)C(C)(C)c1ccc(S(=O)(=O)N2C[C@H]3C[C@H]4C[C@H](C4(C)C)[C@@]3(COC(=O)Nc3ccc(I)cc3)C2)cc1` [compound 60, ((3aS,4R,6R,7aS)-2-((4-(1-(dimethylamino)-2-methyl-1-oxopropan-2-yl)phenyl)sulfonyl)-5,5-dimethyloctahydro-3aH-4,6-methanoisoindol-3a-yl)methyl (4-iodophenyl)carbamate], the IC50 is 200 to 1000 nM.

On to `COc1ccc(NC(=O)OC[C@]23CN(S(=O)(=O)c4ccc(C(C)(C)C)cc4)C[C@H]2C[C@H]2C[C@@H]3C2(C)C)cc1` [compound 20, ((3aS,4R,6R,7aS)-2-((4-(tert-butyl)phenyl)sulfonyl)-5,5-dimethyloctahydro-3aH-4,6-methanoisoindol-3a-yl)methyl (4-methoxyphenyl)carbamate], for which the IC50 was 1000 to 5000 nM.

As for `Cc1ccc(NC(=O)OC[C@]23CN(S(=O)(=O)c4ccc(C5(C(F)(F)F)N=N5)cc4)C[C@H]2C[C@H]2C[C@@H]3C2(C)C)cc1` [compound 35, ((3aS,4R,6R,7aS)-5,5-dimethyl-2-((4-(3-(trifluoromethyl)-3H-diazirin-3-yl)phenyl)sulfonyl)octahydro-3aH-4,6-methanoisoindol-3a-yl)methyl p-tolylcarbamate], the IC50 lay within 1000 to 5000 nM.

Turning to `CC1(C)[C@H]2C[C@@H]3CN(S(=O)(=O)c4ccc(-c5ccccc5)cc4)C[C@]3(COC(=O)Nc3ccc(I)cc3)[C@@H]1C2` [compound 44, ((3aS,4R,6R,7aS)-2-([1,1'-biphenyl]-4-ylsulfonyl)-5,5-dimethyloctahydro-3aH-4,6-methanoisoindol-3a-yl)methyl (4-iodophenyl)carbamate], the IC50 fell in the range of 200 to 1000 nM.

On to `Cc1ccc(NC(=O)OC[C@]23CN(S(=O)(=O)c4ccccc4Br)C[C@H]2C[C@H]2C[C@@H]3C2(C)C)cc1` [compound 36, ((3aS,4R,6R,7aS)-2-((2-bromophenyl)sulfonyl)-5,5-dimethyloctahydro-3aH-4,6-methanoisoindol-3a-yl)methyl p-tolylcarbamate], for which the IC50 lay within 5000 to 10000 nM.

With `Cc1ccc(NC(=O)OC[C@]23CN(S(=O)(=O)C(C)C)C[C@H]2C[C@H]2C[C@@H]3C2(C)C)cc1` [compound 30, ((3aS,4R,6R,7aS)-2-(isopropylsulfonyl)-5,5-dimethyloctahydro-3aH-4,6-methanoisoindol-3a-yl) methyl p-tolylcarbamate], the IC50 lay in the range of 1000 to 5000 nM.

As for `CC(C)(C)c1ccc(S(=O)(=O)N2C[C@H]3C[C@H]4C[C@H](C4(C)C)[C@@]3(COC(=O)Nc3ccccc3Br)C2)cc1` [compound 13, ((3aS,4R,6R,7aS)-2-((4-(tert-butyl)phenyl)sulfonyl)-5,5-dimethyloctahydro-3aH-4,6-methanoisoindol-3a-yl)methyl (2-bromophenyl)carbamate], the IC50 is 200 to 1000 nM.

`CCc1ccc(NC(=O)OC[C@]23CN(S(=O)(=O)c4ccc(C(C)(C)C)cc4)C[C@H]2C[C@H]2C[C@@H]3C2(C)C)cc1` [compound 2, ((3aS,4R,6R,7aS)-2-((4-(tert-butyl)phenyl)sulfonyl)-5,5-dimethyloctahydro-3aH-4,6-methanoisoindol-3a-yl)methyl (4-ethylphenyl)carbamate]: the IC50 lay in the range of 1000 to 5000 nM.

For `CC1(C)CCC(C)(C)c2cc(S(=O)(=O)N3C[C@H]4C[C@H]5C[C@H](C5(C)C)[C@@]4(COC(=O)Nc4ccc(I)cc4)C3)ccc21` [compound 46], the IC50 fell in the range of 200 to 1000 nM.

For `CC1(C)[C@H]2C[C@@H]3CN(S(=O)(=O)c4ccc(C5CCCCC5)cc4)C[C@]3(COC(=O)Nc3ccc(I)cc3)[C@@H]1C2` [compound 45, ((3aS,4R,6R,7aS)-2-((4-cyclohexylphenyl)sulfonyl)-5,5-dimethyloctahydro-3aH-4,6-methanoisoindol-3a-yl)methyl (4-iodophenyl)carbamate], the IC50 was in the range of 1000 to 5000 nM.

In the case of `CC(C)c1ccc(S(=O)(=O)N2C[C@H]3C[C@H]4C[C@H](C4(C)C)[C@@]3(COC(=O)Nc3ccc(I)cc3)C2)cc1` [compound 43, ((3aS,4R,6R,7aS)-2-((4-isopropylphenyl)sulfonyl)-5,5-dimethyloctahydro-3aH-4,6-methanoisoindol-3a-yl)methyl (4-iodophenyl)carbamate], the IC50 is less than 200 nM.

For `COC(=O)CC(C)(C)c1ccc(S(=O)(=O)N2C[C@H]3C[C@H]4C[C@H](C4(C)C)[C@@]3(COC(=O)Nc3ccc(I)cc3)C2)cc1` [compound 62, Methyl 3-(4-(((3aS,4R,6R,7aS)-3a-((((4-iodophenyl)carbamoyl)oxy)methyl)-5,5-dimethyloctahydro-2H-4,6-methanoisoindol-2-yl)sulfonyl)phenyl)-3-methylbutanoate], the IC50 is less than 200 nM.

Turning to `Cc1ccc(NC(=O)OC[C@]23CN(S(=O)(=O)c4ccc(OC(F)(F)F)cc4)C[C@H]2C[C@H]2C[C@@H]3C2(C)C)cc1` [compound 34, ((3aS,4R,6R,7aS)-5,5-dimethyl-2-((4-(trifluoromethoxy)phenyl)sulfonyl)octahydro-3aH-4,6-methanoisoindol-3a-yl)methyl p-tolylcarbamate], the IC50 lay within 1000 to 5000 nM.

Consider `CC(C)(C)c1ccc(S(=O)(=O)N2C[C@H]3C[C@H]4C[C@H](C4(C)C)[C@@]3(COC(=O)Nc3ccc(C#N)cc3)C2)cc1` [compound 23, ((3aS,4R,6R,7aS)-2-((4-(tert-butyl)phenyl)sulfonyl)-5,5-dimethyloctahydro-3aH-4,6-methanoisoindol-3a-yl)methyl (4-cyanophenyl)carbamate], for which the IC50 was in the range of 1000 to 5000 nM.

As to `CC(C)(C)c1ccc(S(=O)(=O)N2C[C@H]3C[C@H]4C[C@H](C4(C)C)[C@@]3(COC(=O)Nc3ccccc3I)C2)cc1` [compound 12, ((3aS,4R,6R,7aS)-2-((4-(tert-butyl)phenyl)sulfonyl)-5,5-dimethyloctahydro-3aH-4,6-methanoisoindol-3a-yl)methyl (2-iodophenyl)carbamate], the IC50 was 200 to 1000 nM.

In the case of `COCCOCC(C)(C)c1ccc(S(=O)(=O)N2C[C@H]3C[C@H]4C[C@H](C4(C)C)[C@@]3(COC(=O)Nc3ccc(I)cc3)C2)cc1` [compound 58, ((3aS,4R,6R,7aS)-2-((4-(1-(2-methoxyethoxy)-2-methylpropan-2-yl)phenyl)sulfonyl)-5,5-dimethyloctahydro-3aH-4,6-methanoisoindol-3a-yl)methyl (4-iodophenyl)carbamate], the IC50 is less than 200 nM.

Turning to `C#Cc1ccc(NC(=O)OC[C@]23CN(S(=O)(=O)c4ccc(C5(C(F)(F)F)N=N5)cc4)C[C@H]2C[C@H]2C[C@@H]3C2(C)C)cc1` [compound 76, ((3aS,4R,6R,7aS)-5,5-dimethyl-2-((4-(3-(trifluoromethyl)-3H-diazirin-3-yl)phenyl)sulfonyl)octahydro-3aH-4,6-methanoisoindol-3a-yl)methyl (4-ethynylphenyl) carbamate], the IC50 is less than 200 nM.

As for `CCC(C)(C)c1ccc(S(=O)(=O)N2C[C@H]3C[C@H]4C[C@H](C4(C)C)[C@@]3(COC(=O)Nc3ccc(I)cc3)C2)cc1` [compound 48, ((3aS,4R,6R,7aS)-5,5-dimethyl-2-((4-(tert-pentyl)phenyl)sulfonyl)octahydro-3aH-4,6-methanoisoindol-3a-yl)methyl (4-iodophenyl)carbamate], the IC50 was less than 200 nM.

Take `Cc1cccc(S(=O)(=O)N2C[C@H]3C[C@H]4C[C@H](C4(C)C)[C@@]3(COC(=O)Nc3ccc(I)cc3)C2)c1` [compound 40, ((3aS,4R,6R,7aS)-5,5-dimethyl-2-(m-tolylsulfonyl)octahydro-3aH-4,6-methanoisoindol-3a-yl)methyl (4-iodophenyl)carbamate]: the IC50 was in the range of 1000 to 5000 nM.

These data come from EP4670717A1, “PYRROLIDINE-FUSED MYRTANOL DERIVATIVES AS INHIBITORS AND/OR DEGRADERS OF IDO1 UND USE THEREOF” (Max-Planck-Gesellschaft zur Förderung der Wissenschaften …, priority 2024, dated 2025).
